Experimental data from ChEMBL document CHEMBL1201862, “PubChem BioAssay data set” (2004).
Active and inactive are the calls of the source.

How the values were obtained:
[1] = target: Paired box protein Pax-8 (Homo sapiens, UniProt Q06710); experiment: inhibitors of PAX8-driven TPO luciferase reporter, dose response, RMG-I cells, cherry-pick (AID 687027); type: functional, cell-based;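 note: luciferase reporter driven by Pax8 target thyroperoxidase promoter measured by SteadyGlo luminescence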
[2] = non-specific cell cytotoxicity, dose response, cytotoxicity control for PAX8 inhibitor project, plate reader, dry powder samples (AID 743021); type: functional, cell-based
[3] = cytotoxicity in OVCAR8 ovarian cancer cells, dose response, PAX8 project, cell-based, plate reader, dry powder samples (AID 743197); type: functional; conditions: OVCAR-8
[4] = NIH:OVCAR-3 ovarian cancer cell cytotoxicity, dose response, PAX8 inhibitor project, plate reader, dry powder samples (AID 743044); type: functional, cell-based
[5] = A2780 ovarian cancer cell cytotoxicity, dose response, cytotoxicity control, plate reader, dry powder samples (AID 743046); type: functional, cell-based
[6] = IOSE-T80 ovarian epithelial cell cytotoxicity, dose response, cytotoxicity control for PAX8 inhibitor project, plate reader, dry powder samples (AID 743045); type: functional, cell-based
[7] = cytotoxicity dependent on PAX8, dose response, cell-based, plate reader, dry powder (AID 743049); type: functional
[8] = PAX2 cell-based inhibition, dose response, selectivity assay for PAX8 inhibitor project, plate reader, dry powder samples (AID 743048); type: functional;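 note: HEK293 cells carrying a WT1 promoter luciferase reporter driven by expressed Pax2; potency is for inhibition of Pax2 driven reporter signal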
[9] = cytotoxicity in OV-90 ovarian cancer cells, dose response, PAX8 inhibitor project, cell-based, plate reader, dry powder, SA8 (AID 743149); type: functional
[10] = PAX5 activity inhibitors, dose response, selectivity assay for PAX8 inhibitor project, cell-based, plate reader, dry powder samples (AID 743047); type: functional;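 note: HEK293 cells carrying a Pax5 driven CD19 promoter luciferase reporter; potency of inhibitors that lower reporter luminescence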
[11] = cytotoxicity in COV362 ovarian cancer cells, dose response, cytotoxicity control for PAX8 inhibitor project, cell-based, plate reader, dry powder, SA12 (AID 743144); type: functional
[12] = cytotoxicity in COV434 cells, dose response, cytotoxicity control for PAX8 inhibitor project, cell-based, plate reader, dry powder, SA7 (AID 743145); type: functional
[13] = Late stage counterscreen for inhibitors of Trypanosoma brucei methionyl tRNA synthetase (MetRS): Luminescence-based cell-based high throughput dose response assay to identify compounds that are cytotoxic to Jurkat human T lymphocyte cells.; type: functional
[14] = HepG2 cell cytotoxicity, dose response, cytotoxicity control, luminescence plate reader, powder samples, set 2 (AID 651860); type: functional, cell-based
[15] = A375 melanoma cell viability loss, dose response, counter-screen for MITF modulator project, CellTiter-Glo luminescence, dry powder, set 9 (AID 651591); type: functional, cell-based; conditions: A-375
[16] = MITF Orthogonal Assay: MALME3 CTG Assay Measured in Cell-Based System Using Plate Reader - 2084-04_Inhibitor_Dose_DryPowder_Activity_Set6.; type: functional; conditions: MALME-3
[17] = SK-MEL-5 parental cell viability reduction, dose response, orthogonal assay for MITF inhibitor project, CellTiter-Glo luminescence, dry powder, set 8 (AID 651586); type: functional, cell-based
[18] = TRPM1 promoter luciferase reporter signal decrease, dose response, MITF inhibitor project, cell-based, SK-MEL-5, dry powder, set 8 (AID 624430); type: functional
[19] = MITF Orthogonal Assay: SK-MEL-5 CTG Assay Measured in Cell-Based System Using Plate Reader - 2084-02_Inhibitor_Dose_DryPowder_Activity_Set7.; type: functional
[20] = MITF: Counter assay: A375 proliferation Measured in Cell-Based System Using Plate Reader - 2084-03_Inhibitor_Dose_DryPowder_Activity_Set8.; type: functional; conditions: A-375
[21] = MALME3 melanoma cell viability reduction, dose response, orthogonal assay for MITF inhibitor project, CellTiter-Glo luminescence, dry powder, set 5 (AID 651584); type: functional, cell-based; conditions: MALME-3
[22] = TRPM1 promoter luciferase reporter signal decrease, dose response, MITF inhibitor project, cell-based, SK-MEL-5, dry powder, set 9 (AID 651588); type: functional
[23] = growth inhibition of replicating M. tuberculosis, dose response, counter-screen, dry powder, IC90 (AID 651617); type: functional; conditions: Mycobacterium tuberculosis
[24] = inhibitors of non-replicating M. tuberculosis, dose response, luciferase, dry powder (AID 651620); type: functional; conditions: Mycobacterium tuberculosis
[25] = inhibitors of non-replicating M. tuberculosis, dose response, luciferase, dry powder (AID 651619); type: functional; conditions: Mycobacterium tuberculosis
[26] = Dose-response inhibition of insulin secretion in a rat insulinoma line at 5 mM glucose (AID 1117331); type: functional, cell-based; conditions: INS-1E
[27] = cells; type: functional, cell-based; conditions: INS-1E
[28] = cytotoxicity toward HT-29 cells – cell-based, CellTiter-Glo luminescence, IC50, dose response (AID 1117330); type: functional
[29] = cytotoxicity toward HCT116 cells – cell-based, CellTiter-Glo luminescence, IC50, dose response (AID 1117332); type: functional; conditions: HCT-116
[30] = cytotoxicity toward Colo320 cells – cell-based, CellTiter-Glo luminescence, IC50, dose response (AID 1117334); type: functional; conditions: COLO 320
[31] = SNU-C1 cell viability reduction, dose response, CellTiter-Glo luminescence (AID 1117323); type: functional, cell-based
[32] = RKO cell viability reduction, dose response, CellTiter-Glo luminescence (AID 1117322); type: functional
[33] = CellTiter-Glo luminescent dose response of DLD-1 viability loss (AID 1117352); type: functional
[34] = Concentration-dependent survival of SW480 colon cancer line, luminescence detection with CellTiter-Glo, half-maximal inhibitory concentration (AID 1117338); type: functional
[35] = HCT116 cell viability decrease, GSK3B pretreatment – CellTiter-Glo, IC50, dose response (AID 1117339); type: functional; conditions: HCT-116

Chain of Paired box protein Pax-8 (Q06710 whole entry): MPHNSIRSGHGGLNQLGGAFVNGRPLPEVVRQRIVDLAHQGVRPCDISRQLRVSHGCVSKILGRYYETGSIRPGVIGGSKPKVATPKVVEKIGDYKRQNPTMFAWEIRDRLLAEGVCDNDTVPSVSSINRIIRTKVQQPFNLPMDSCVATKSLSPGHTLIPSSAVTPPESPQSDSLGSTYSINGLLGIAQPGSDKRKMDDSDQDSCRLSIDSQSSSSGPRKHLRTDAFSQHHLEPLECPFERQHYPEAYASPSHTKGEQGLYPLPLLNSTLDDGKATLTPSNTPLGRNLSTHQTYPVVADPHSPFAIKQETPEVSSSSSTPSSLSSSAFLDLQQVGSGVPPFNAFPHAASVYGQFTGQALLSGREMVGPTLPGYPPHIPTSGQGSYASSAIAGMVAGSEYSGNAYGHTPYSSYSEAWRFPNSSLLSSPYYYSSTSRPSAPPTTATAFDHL

With `COc1ccc(NC(=O)N2CCCCN3[C@@H](CO)[C@@H](c4ccc(C#Cc5ccccc5)cc4)[C@@H]3C2)cc1` the AC50 [1] was 14.9 µM (active), the AC50 [2] was 42.1 µM (active) and the AC50 [3] was 40.1 µM (active). The AC50 [4] was 23.3 µM (active), the AC50 [5] was 22.2 µM (active) and the AC50 [6] was 37.1 µM (active).
With `O=C(N1CCCCC1)[C@@]1(CCS(=O)(=O)c2ccccc2)N=C(c2ccc(OCCCO)cc2)O[C@H]1c1ccccc1` the AC50 [7] was 87.1 µM (active), the AC50 [4] was 64.6 µM (active) and the AC50 [8] was 49.5 µM (active). The AC50 [9] was > 100 µM (inactive), the AC50 [10] was 41.9 µM (active) and the AC50 [5] was 32.1 µM (active). For the same compound, the AC50 [11] was > 100 µM (inactive) and the AC50 [12] was > 100 µM (inactive).
For `O=C(NCc1nc2ccccc2[nH]1)C1=C[C@H](c2csc3ccccc23)C[C@H](OCCCCO)O1`, the IC50 [13] was 60.3 µM (inactive).
For `Cc1cc(C)c(S(=O)(=O)Nc2nc(C(C(=O)OC(C)C)C(=O)C(F)(F)F)nc3ccccc23)c(C)c1` (configuration not stated), the AC50 [14] was > 52 µM (inactive).
In the case of `CCN1CCN(C2=C(Nc3ccc(F)cc3F)C(=O)c3ccccc3C2=O)CC1`, the AC50 [15] is reported as > 70 µM (inactive), the AC50 [16] is reported as 26.3 µM (active) and the AC50 [17] is reported as > 70 µM (inactive). The AC50 [18] was 2.41 µM (active), the AC50 [19] was 8.99 µM (active) and the AC50 [20] was > 70 µM (inactive). For the same compound, the AC50 [21] was 26.3 µM (active) and the AC50 [22] was 12.3 µM (active).
In the case of `[N-]=[N+]=NCCOCCNC(=O)CCCOc1ccc(CSc2nnc(-c3ccc(Cl)cc3)o2)nc1`, the IC90 [23] is reported as 62 µM (active), the IC90 [24] is reported as 8 µM (active) and the IC90 [25] is reported as 8 µM (active).
In the case of `Oc1ccccc1` [PHENOL], the IC50 [26] is reported as > 33.3 µM (inactive) and the IC50 [27] is reported as > 33.3 µM (inactive).
In the case of `Cc1nnc(NS(=O)(=O)c2ccc(N)cc2)s1` [SULFAMETHIZOLE], the IC50 [28] is reported as > 20 µM (inactive), the IC50 [29] is reported as > 20 µM (inactive) and the IC50 [30] is reported as > 20 µM (inactive). For the same compound, the IC50 [31] was > 20 µM (inactive), the IC50 [32] was > 20 µM (inactive) and the IC50 [33] was > 20 µM (inactive). The IC50 [34] was > 20 µM (inactive) and the IC50 [35] was > 20 µM (inactive).
